Patent publication US8673911B2, “Inhibitors of histone deacetylase” (MethylGene Inc., priority 2007, dated 2014)

What follows are compounds tested against one or more of HDAC4, HDAC5, HDAC6, HDAC7, HDAC8, HDAC9 and HDAC11 (assay: Inhibition of histone deacetylase enzymatic activity (fluorogenic Boc-Lys(Ac)-AMC / Boc-Lys(trifluoroacetyl)-AMC substrate)). Conditions: against one or more of HDAC4, HDAC5, HDAC6, HDAC7, HDAC8, HDAC9 and HDAC11.
Format: biochemical
Protocol: Inhibition of HDAC-1,2,3,6 and 8
The following protocol is used to assay the compounds of the invention. In the assay, the buffer used is 25 mM HEPES, pH 8.0, 137 mM NaCl, 2.7 mM KCl, 1 mM MgCl2 and the substrate is Boc-Lys(Ac)-AMC in a 50 mM stock solution in DMSO. The enzyme stock solution is 4.08 μg/mL in buffer.
The compounds are pre-incubated (2 μl, in DMSO diluted to […] in buffer for transfer to assay plate) with enzyme (20 μL of 4.08 μg/mL) for 10 minutes at room temperature (35 μL pre-incubation volume). The mixture is pre-incubated for 5 minutes at room temperature. The reaction is started by bringing the temperature to 37° C. and adding 15 μL substrate. Total reaction volume is 50 μL. The reaction is stopped after 20 minutes by addition of 50 μL developer, prepared as directed by Biomol (FLUOR DE LYS™ developer, Cat. # KI-105). A plate is incubated in the dark for 10 minutes at room temperature before reading (λEx=360 nm, λEm=470 nm, Cutoff filter at 435 nm).
Inhibition of Class II HDAC and HDAC-11
A 30 mM stock of Boc-Lys(trifluoroacetyl)-AMC substrate is prepared in DMSO. 2 μL test compound in DMSO is diluted to 50 μL in buffer (25 mM HEPES, pH 8.0, 137 mM NaCl, 2.7 mM KCl, 1 mM MgCl2, 0.1% BSA) and pre-incubated with HDAC enzyme (30 μL of a final enzyme concentration of 0.1-0.2 nM) for 10 minutes at room temperature. Reaction is started by adding 18 μL Boc-Lys(trifluoroacetyl)-AMC substrate and incubating at 37° C. for 20-30 minutes. The reaction is stopped by adding 50 μL trypsin (1 mg/mL) and a known HDAC inhibitor. The plate is then incubated in the dark for 20 minutes at room temperature and read with Ex=360 nm, Em=470 nm, cutoff filter at 435 nm.

| IC50 | Structure (SMILES) |
| --- | --- |
| 250 to 500 nM | O=C(NO)c1sc(-c2ccccn2)nc1-c1ccccc1 [Compound 153, N-hydroxy-4-phenyl-2-(pyridin-2-yl)thiazole-5-carboxamide] |
| 500 to 750 nM | COc1ccc(S(=O)(=O)Nc2ccc3sc(C(=O)NO)c(-c4ccccc4)c3c2)cc1 [Compound 154, N-hydroxy-5-(4-methoxyphenyl-sulfonamido)-3-phenylbenzo[b] thiophene-2-carboxamide] |
| < 250 nM | O=C(Cc1ccc(C(F)(F)F)cc1)Nc1ccc(C(=O)NO)c(-c2ccccc2)c1 [Compound 155, N-hydroxy-5-(2-(4-(trifluoromethyl)phenyl)acetamido) biphenyl-2-carboxamide] |
| < 250 nM | O=C(NO)c1sc2ccc(NS(=O)(=O)Cc3ccccc3)cc2c1-c1ccccc1 [Compound 157, N-hydroxy-3-phenyl-5-(phenylmethyl-sulfonamido) benzo[b]thiophene-2-carboxamide] |
| < 250 nM | CC(=O)Nc1ccc(S(=O)(=O)N2CCC(c3nc(-c4ccccc4)c(C(=O)NO)s3)CC2)cc1 [Compound 158, 2-(1-(4-acetamidophenyl-sulfonyl)piperidin-4-yl)-N-hydroxy-4-phenylthiazole-5-carboxamide] |
| 250 to 500 nM | O=C(NO)c1sc2ccc(NS(=O)(=O)c3cccs3)cc2c1-c1ccccc1 [Compound 160] |
| < 250 nM | O=C(NO)c1ccc(CN2C(=O)c3ccccc3Oc3ccccc32)cc1-c1ccccc1 [Compound 162, N-hydroxy-5-((11-oxodibenzo[b,f] [1,4]oxazepin-10(11H)-yl)methyl)biphenyl-2-carboxamide] |
| < 250 nM | O=C(NCc1ccccc1)OCc1cc(-c2ccccc2)c(C(=O)NO)s1 [Compound 180, (5-(hydroxycarbamoyl)-4-phenylthiophen-2-yl)methyl benzylcarbamate] |
| < 250 nM | CN(Cc1ccccc1)C(=O)OCc1cc(-c2ccccc2)c(C(=O)NO)s1 [Compound 181, (5-(hydroxycarbamoyl)-4-phenylthiophen-2-yl)methyl benzyl(methyl)carbamate] |
| < 250 nM | CN(Cc1ccccc1)Cc1cc(-c2ccccc2)c(C(=O)NO)s1 [Compound 182, 5-((benzyl(methyl)amino)methyl)-N-hydroxy-3-phenylthiophene-2-carboxamide] |
| < 250 nM | O=C(NO)c1sc(-c2ccc3c(c2)OCO3)nc1-c1ccccc1 [compound 81] |
| 500 to 750 nM | O=C(Nc1ccccc1Oc1ccccc1)c1ccc(C(=O)NO)c(-c2ccccc2)c1 [compound 105] |

| Structure (SMILES) | IC50 |
| --- | --- |
| O=C(NO)c1sc(C2CCN(CCc3c[nH]c4ccccc34)CC2)nc1-c1ccccc1 [Compound 152, 2-(1-(2-(1H-indol-3-yl)ethyl)piperidin-4-yl)-N-hydroxy-4-phenylthiazole-5-carboxamide] | < 250 nM |
